Results from patent publication US8748575B2, “Therapeutic peptides” (Combimab, Inc., priority 2010, dated 2014).
Residues, ends and D or L forms follow the SMILES beside them.

Key:
GC-C = molecular target: T1, GC-C (Mus musculus, UniProt Q3UWA6); test: Intestinal membrane 125I-STa competitive radioligand binding assay; design: key to I-125 binding assay: 1+ (lowest activity/potency); ++: Results are graded from 1+ (lowest activity/potency) to 5+ (highest activity/potency); +++: Results are graded from 1+ (lowest activity/potency) to 5+ (highest activity/potency); ++++: Results are graded from 1+ (lowest activity/potency) to 5+ (highest activity/potency); +++++: 5+ (highest activity/potency); details: graded activity/potency, mouse intestinal membranes
T1 construct: freshly prepared mouse intestine membranes; from tissue; host or cells: mouse intestine (membrane preparation)
T1 sequence (Q3UWA6 20-1072): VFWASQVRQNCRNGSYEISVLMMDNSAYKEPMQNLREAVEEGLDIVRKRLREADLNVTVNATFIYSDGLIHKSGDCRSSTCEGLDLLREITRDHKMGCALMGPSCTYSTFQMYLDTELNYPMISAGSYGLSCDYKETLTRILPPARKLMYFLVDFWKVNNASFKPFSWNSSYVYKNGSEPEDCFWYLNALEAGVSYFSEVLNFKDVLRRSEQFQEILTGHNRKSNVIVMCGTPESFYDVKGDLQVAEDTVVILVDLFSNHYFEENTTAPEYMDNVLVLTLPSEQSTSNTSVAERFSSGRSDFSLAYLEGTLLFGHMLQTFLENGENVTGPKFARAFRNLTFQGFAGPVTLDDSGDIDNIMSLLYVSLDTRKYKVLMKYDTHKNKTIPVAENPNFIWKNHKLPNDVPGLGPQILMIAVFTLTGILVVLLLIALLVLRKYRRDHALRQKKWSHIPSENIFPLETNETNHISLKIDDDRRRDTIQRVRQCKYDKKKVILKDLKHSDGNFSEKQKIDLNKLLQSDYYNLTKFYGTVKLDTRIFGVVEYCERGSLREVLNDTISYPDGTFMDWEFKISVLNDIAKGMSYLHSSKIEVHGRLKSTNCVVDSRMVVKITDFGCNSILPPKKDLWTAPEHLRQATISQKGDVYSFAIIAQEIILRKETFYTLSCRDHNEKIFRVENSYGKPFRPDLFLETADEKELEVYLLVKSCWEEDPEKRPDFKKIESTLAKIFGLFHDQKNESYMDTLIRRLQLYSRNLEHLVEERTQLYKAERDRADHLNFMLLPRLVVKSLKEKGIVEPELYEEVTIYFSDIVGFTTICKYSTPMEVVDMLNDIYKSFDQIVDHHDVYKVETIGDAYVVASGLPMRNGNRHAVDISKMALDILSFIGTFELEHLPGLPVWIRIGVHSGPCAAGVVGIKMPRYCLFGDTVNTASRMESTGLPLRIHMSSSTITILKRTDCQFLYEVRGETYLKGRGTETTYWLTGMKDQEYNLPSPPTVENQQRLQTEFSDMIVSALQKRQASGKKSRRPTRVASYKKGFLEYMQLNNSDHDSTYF
Method: Intestinal membrane 1-125 labeled radioligand binding assay. The intestinal membrane radioligand binding assay was used to assess whether a novel compound could displace ^125I-STa from GC-C (Crane et al., 1992). Each analog was analyzed for its ability to displace ^125I-STa from GC-C in a competitive binding assay. ^125I-ST Displaced” was determined by co-incubating STa analogs (10 μM) with 50,000 DPM of ^125I-STa (1-18) in the presence of mouse intestinal membranes. The displacement (n=3) for each analog was determined relative to a vehicle control.
Membranes were prepared from freshly harvested mouse intestines by first washing away the blood or feces with ice-cold Dulbecco's PBS. Washed organs were minced with a single-edged razor blade, followed by homogenization on ice in 50 mM Tris, pH 7.6, containing 1 mM EDTA, 1 mM PMSF, 1 mM DTT. Debris was then removed by a 15 minute centrifugation at 3,000×G and 4° C. The supernatant is then passed through successively smaller needles (18 gauge through 25 gauge) and frozen at −70° C. until used as a tissue homogenate. If intended for use as isolated membranes, the above homogenate was centrifuged (100,000×G) at 4° C. for 1 hour while fresh and the pellet was re-suspended in homogenization buffer.
The assay was performed in 96 well filter plates which were pre-incubated overnight with 200 μl of 0.3% polyethylenimine (w/v) and washed three times by aspiration with 300 μl of Wash Buffer (150 mM NaCl, 20 mM Sodium Phosphate pH=7.2, 1 mM EDTA) immediately before use. Into each well of was added 50 μl of 3× Binding buffer (150 mM Tris-HCl pH=7.6, 1.98 mM Cysteamine, 0.3% Bacitracin, 1350 mM NaCl, 3 mM EDTA), 40 μl of double-distilled water, 10 μl of either double-distilled water or cold ligand (50 uM STa (5-18) in double-distilled water), 10 μl of increasing concentrations (125 DPM/ul to 50,000 DPM/ul) of radiolabeled 125I -STa (1-18) and finally 40 μl (approximately 2 mg protein/ml) of freshly prepared mouse intestine membranes. The plates were then incubated with mixing at 37 C for two hr, washed successively with six 200 μl aliquots of Wash Buffer and aspirated to dryness. The filter bottoms of each well were punched into individual borosilicate tubes and bound radioactivity determined in a gamma counter. Protein content was determined on an aliquot of the mouse intestine membranes used in the Biorad Protein Assay.

[1] = Mouse intestinal secretion assay (suckling mouse assay); type: in vivo; design: key to Mouse intestinal secretion assay (suckling mouse): 1+ (lowest activity/potency); ++: Results are graded from 1+ (lowest activity/potency) to 5+ (highest activity/potency); +++: Results are graded from 1+ (lowest activity/potency) to 5+ (highest activity/potency); ++++: Results are graded from 1+ (lowest activity/potency) to 5+ (highest activity/potency); +++++: 5+ (highest activity/potency); details: for Mouse intestinal secretion assay (suckling mouse): graded activity/potency
Method: A relevant disease model is the suckling mouse model in which STa (5-18) is deposited into the stomach of 3-4 day old mice, and the accumulation of fluid in their intestines is determined gravimetrically (Parkinson et al., 1994). All GCC peptides were formulated to the desired concentration in Dulbecco's PBS (1×, No Ca++, no Mg++) containing […] immediately prior to dosing. Proteinase inhibitors were prepared as stock solutions in PBS and added to dosing solutions by serial dilution, as needed. The dosing solution (50 μL) was delivered into the stomachs of 2-4 day old mice (3 per dosing group) using a plastic tube attached to the needle of a 1 mL tuberculin syringe. After 3 hours, the animals were sacrificed and dissected to determine the individual weights of the intestines and the rest of the carcass, respectively.

Molecule	I-125 binding assay (GC-C)	Mouse intestinal secretion assay (suckling mouse) [1]	activity in the mouse intestinal secretion assay ([1]; FIG. 26, compared to STa)
H2N Asn Thr Phe Tyr Cys Cys Glu Leu Cys Cys Asn Pro Ala Cys Ala Gly Cys Tyr COOH [STa(1-18)]	+++	++++	
C[C@@H]1NC(=O)[C@@H]2CCCN2C(=O)[C@H](CC(N)=O)NC(=O)[C@@H]2CSSC[C@H](N)C(=O)N[C@H]3CSSC[C@H](NC1=O)C(=O)N[C@@H]([C@@H](C)O)C(=O)NCC(=O)N[C@H](C(=O)N[C@@H](Cc1ccc(O)cc1)C(=O)O)CSSC[C@H](NC(=O)[C@H](Cc1ccc(O)cc1)NC(=O)[C@H](CCC(=O)O)NC3=O)C(=O)N2 [Linaclotide, H2N Cys Cys Glu Tyr Cys Cys Asn Pro Ala Cys Thr Gly Cys Tyr COOH] (HELM PEPTIDE1{C.C.E.Y.C.C.N.P.A.C.T.G.C.Y}$PEPTIDE1,PEPTIDE1,1:R3-6:R3|PEPTIDE1,PEPTIDE1,2:R3-10:R3|PEPTIDE1,PEPTIDE1,5:R3-13:R3$$$V2.0)	+++	+++	lower activity
